Tested on: isolated Langendorff-perfused rat heart
Test: Isolated perfused heart according to Langendorff: perfusion pressure and wash-out score (C-1.2)
Conditions: for Perfusion pressure (%) (timepoint at 20 min) Mean: isolated Langendorff-perfused rat heart; for Perfusion pressure (%) (timepoint at 90 min) Mean: wash-out phase; for wash-out score: PP recovery after 60 min of washout related to maximum drop of PP; for wash-out score / effect on perfusion pressure (PP): comparative example 11 300 nmol/l, others 100 nmol/l, n=6
Protocol: Male Wistar rats (strain HsdCpb:WU) with a body weight of 200-250 g were anaesthetized with Narcoren® (100 mg/kg). The thorax was opened and the heart was then exposed, excised and connected to a Langendorff apparatus by placing a cannula into the aorta. The heart was perfused retrogradely at 9 ml/min at constant flow with a Krebs-Henseleit buffer solution (gassed with 95% O2 and 5% CO2, pH 7.4, 35° C.; composition in mmol/l: NaCl 118; KCl 3; NaHCO3 22; KH2PO4 1.2; MgSO4 1.2; CaCl2 1.8; Glucose 10; Na pyruvate 2). A pressure transducer registered the perfusion pressure in the perfusion system. The left ventricular pressure (LVP) was measured using a second pressure transducer connected to a water-filled balloon which was inserted into the left ventricle via the left atrium. The end diastolic pressure was initially set to 8 mm Hg by adjusting the volume of the balloon. The hearts were spontaneously beating. The signals from the pressure transducer were amplified, registered by a personal computer (Powerlab Chart software, ADInstruments).
Then the hearts were perfused for a further 120 min without the test substance (wash-out phase). The reversibility of the effect (wash-out score) was calculated as a percentage of the PP recovery after 60 min of washout related to the maximum drop of PP induced by the test compound. The wash-out score obtained in this manner was taken as a measure for the residence time of the test substance at the site of action.

O=C(O)CCCCN(CCc1cc(F)ccc1OCc1ccc(-c2nc3cc(Cl)ccc3o2)cc1)C1CCCc2nc(C(=O)O)ccc21 (single isomer, unassigned) [comparative example 3, (5)-{(4-carboxybutyl)[2-(2-{[4-(5-chloro-1,3-benzoxazol-2-yl)benzyl]oxy}-5-fluorophenyl)ethyl]amino}-5,6,7,8-tetrahydroquinoline-2-carboxylic acid]
Wash-out score (%) after 60 min (100 nmol/l): 25.4%
Perfusion pressure (%) (timepoint at 20 min) Mean (100 nmol/l): 63.3%
Perfusion pressure (%) (timepoint at 90 min) Mean (100 nmol/l): 72.5%
wash-out score: 25.4%
effect on perfusion pressure (PP): pronounced reduction of perfusion pressure

O=C(O)CCCCN(CCc1ccccc1OCc1ccc(CCc2ccccc2)cc1)Cc1ccc(C(=O)O)cc1 [comparative example 1, 4-[((4Carboxybutyl)-{2-[(4-phenethylbenzyl)oxy]phenethyl}amino)methyl]benzoic acid]
wash-out score: 30%
effect on perfusion pressure (PP): pronounced reduction of perfusion pressure

O=C(O)c1ccc(CCN(CCc2ccccc2OCc2ccc(-c3ccc(C(F)(F)F)cc3)cc2Cl)[C@H]2CCCc3nc(C(=O)O)ccc32)cc1 [comparative example 11, (5S)-5-{[2-(4-carboxyphenyl)ethyl][2-(2-{[3-chloro-4′-(trifluoromethyl)[biphenyl]-4-yl]methoxy}phenyl)ethyl]amino}-5,6,7,8-tetrahydroquinoline-2-carboxylic acid]
Wash-out score (%) after 60 min (300 nmol/l): 2.9%
Perfusion pressure (%) (timepoint at 20 min) Mean (300 nmol/l): 69.0%
Perfusion pressure (%) (timepoint at 90 min) Mean (300 nmol/l): 71.9%
wash-out score: 2.9%
effect on perfusion pressure (PP): pronounced reduction of perfusion pressure
